Data on 8 molecules can be found in PubChem BioAssay (NCI).

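96-well plates; 48 h exposure; 5 concentrations. Endpoints by linear interpolation between flanking doses. Not reached: highest tested concentration assigned. The concentration for 50% growth inhibition is given as GI50. TGI marks complete inhibition of growth.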 Some results are limits rather than exact numbers.

Some test systems named below: SK-MEL-2 melanoma; HCT-116 colon; NCI-H23 lung; SK-MEL-28 melanoma; SR leukemia; SK-MEL-5 melanoma; PC-3 prostate; MALME-3M melanoma; SF-539 CNS; HS 578T breast.
What all share (assay): NCI tumour cell line growth inhibition, 48 h

For `COC(=O)C[C@@H]1CC=CC(=O)/C1=C(O)/C=C/c1ccccc1`, the GI50 was 1.63 µM with SK-MEL-2 melanoma; 0.169 µM in the experiment on HCT-116 colon; 0.7 µM in the experiment on NCI-H23 lung; 1.19 µM with SK-MEL-28 melanoma; 0.275 µM with SR leukemia; 1.41 µM with SK-MEL-5 melanoma. In addition, the GI50 in the experiment on PC-3 prostate was 0.856 µM; with MALME-3M melanoma, 1.56 µM; in the experiment on SF-539 CNS, 0.433 µM; in the experiment with HS 578T breast, 3.49 µM. Also, the TGI with SK-MEL-2 melanoma was found to be 3.56 µM; with HCT-116 colon, 0.329 µM; in the experiment on NCI-H23 lung, 2.13 µM; in the experiment on SK-MEL-28 melanoma, 2.61 µM; in the experiment with SK-MEL-5 melanoma, 2.79 µM; in the experiment with PC-3 prostate, 3.76 µM. Also, the results for the TGI with MALME-3M melanoma, in the experiment with SF-539 CNS and with HS 578T breast were 3.33 µM, 7.15 µM and greater than 49.2 µM, respectively.
Consider `C=C(C)[C@@H]1CC[C@]2(COC(=O)c3ccccc3C(=O)O)CC[C@]3(C)[C@H](CC[C@@H]4[C@@]5(C)CC[C@H](OC(=O)c6ccccc6C(=O)O)C(C)(C)[C@@H]5CC[C@]43C)[C@@H]12`, for which the GI50 in the experiment with SK-MEL-2 melanoma was 20.6 µM; in the experiment with HCT-116 colon it was 33.1 µM; in the experiment on NCI-H23 lung, 42.7 µM; in the experiment on SK-MEL-28 melanoma it was 95.5 µM; in the experiment with SR leukemia, 27.3 µM; in the experiment on SK-MEL-5 melanoma, 99.2 µM. In addition, the GI50 is 34.6 µM in the experiment on PC-3 prostate, 60.8 µM with MALME-3M melanoma, 36.3 µM in the experiment with SF-539 CNS and 26.4 µM with HS 578T breast. The TGI in the experiment on SK-MEL-2 melanoma was 54.1 µM; with HCT-116 colon, greater than 100 µM; with NCI-H23 lung it was greater than 100 µM; in the experiment with SK-MEL-28 melanoma it was greater than 100 µM; with SR leukemia it was 74.1 µM; in the experiment on SK-MEL-5 melanoma it was greater than 100 µM. The TGI in the experiment with PC-3 prostate, in the experiment with MALME-3M melanoma, in the experiment on SF-539 CNS and with HS 578T breast was greater than 100 µM in each case.
On to `CCOC(=O)CC1C(CNC(=O)NC)OC(n2cnc3c(NC(=O)Nc4ccccc4)ncnc32)C1O[Si](C)(C)C(C)(C)C` (stereo unspecified), for which the GI50 in the experiment on SK-MEL-2 melanoma was 5.42 µM; in the experiment on HCT-116 colon it was 3.2 µM; in the experiment with NCI-H23 lung, 33.3 µM; in the experiment with SK-MEL-28 melanoma, 6.85 µM; with SR leukemia, 2.23 µM; in the experiment on SK-MEL-5 melanoma it was 4.34 µM. The GI50 in the experiment on PC-3 prostate is 2.25 µM; with MALME-3M melanoma, 10.3 µM; with SF-539 CNS, 5.19 µM; with HS 578T breast, 3.6 µM. In addition, the TGI is 33.1 µM with SK-MEL-2 melanoma; 16.1 µM in the experiment with HCT-116 colon; greater than 100 µM in the experiment on NCI-H23 lung; 20.2 µM in the experiment with SK-MEL-28 melanoma; 7.07 µM in the experiment with SR leukemia; greater than 100 µM in the experiment with SK-MEL-5 melanoma. Besides, the TGI was 4.85 µM in the experiment with PC-3 prostate, greater than 100 µM in the experiment with MALME-3M melanoma, greater than 100 µM in the experiment with SF-539 CNS and 53.6 µM with HS 578T breast.
Turning to `O=C(Oc1c(Cl)c(Cl)c(Cl)c(Cl)c1Cl)C1CCCN1C(=O)OCc1ccccc1` (stereo unspecified), the GI50 with SK-MEL-2 melanoma is 2.28 µM; with HCT-116 colon, 3.43 µM; with NCI-H23 lung, 3.17 µM; in the experiment on SK-MEL-28 melanoma, 7.45 µM; with SR leukemia, 3.82 µM; with SK-MEL-5 melanoma it was 2.26 µM. The GI50 was 2.95 µM in the experiment on PC-3 prostate, 3.62 µM in the experiment with MALME-3M melanoma, 2.63 µM with SF-539 CNS and 2.92 µM in the experiment with HS 578T breast. In addition, the TGI was 4.49 µM with SK-MEL-2 melanoma; 10.7 µM in the experiment with HCT-116 colon; 10.1 µM with NCI-H23 lung; 22.1 µM in the experiment on SK-MEL-28 melanoma; 15.7 µM in the experiment on SR leukemia; 5.74 µM in the experiment on SK-MEL-5 melanoma. Also, the TGI in the experiment on PC-3 prostate is 11.6 µM; in the experiment with MALME-3M melanoma, 11.4 µM; in the experiment on SF-539 CNS, 9.56 µM; in the experiment on HS 578T breast it was 10.4 µM.
As to `COc1ccc2c(ccc3oc([N+](=O)[O-])cc32)c1`, the GI50 is 0.107 µM with SK-MEL-2 melanoma; 0.0487 µM in the experiment with HCT-116 colon; 0.203 µM in the experiment on NCI-H23 lung; 0.118 µM with SK-MEL-28 melanoma; 0.0748 µM in the experiment with SR leukemia; 0.0413 µM in the experiment with SK-MEL-5 melanoma. Further, the GI50 with PC-3 prostate was 0.305 µM; in the experiment with MALME-3M melanoma, 0.137 µM; with SF-539 CNS, 0.225 µM; with HS 578T breast, 0.301 µM. The TGI in the experiment with SK-MEL-2 melanoma is 0.292 µM; with HCT-116 colon, 0.92 µM; with NCI-H23 lung it was 0.605 µM; with SK-MEL-28 melanoma it was 0.323 µM; in the experiment with SR leukemia, 17.6 µM; in the experiment with SK-MEL-5 melanoma, 0.142 µM. For the same molecule, the TGI was found to be 3.63 µM in the experiment on PC-3 prostate, 0.314 µM in the experiment with MALME-3M melanoma, 0.595 µM with SF-539 CNS and 1.58 µM with HS 578T breast.
Regarding `COc1cc(-c2cn(-c3ccc(F)cc3)c(=O)[nH]2)cc(OC)c1OC`, the GI50 in the experiment with SK-MEL-2 melanoma, in the experiment with HCT-116 colon, with NCI-H23 lung, with SK-MEL-28 melanoma, with SR leukemia and with SK-MEL-5 melanoma was greater than 100 µM in each case. In addition, the GI50 was greater than 100 µM in the experiment on PC-3 prostate, greater than 100 µM with MALME-3M melanoma, greater than 100 µM in the experiment on SF-539 CNS and 50.9 µM in the experiment with HS 578T breast. The TGI with SK-MEL-2 melanoma, in the experiment with HCT-116 colon, in the experiment with NCI-H23 lung, in the experiment with SK-MEL-28 melanoma, in the experiment with SR leukemia and in the experiment on SK-MEL-5 melanoma was greater than 100 µM throughout. In addition, the TGI in the experiment with PC-3 prostate, with MALME-3M melanoma, with SF-539 CNS and in the experiment on HS 578T breast was greater than 100 µM each time.
Regarding `N#CC1=C(N)Oc2c(ccc3cccnc23)C1c1ccccc1` (stereo unspecified), the TGI with SK-MEL-2 melanoma is greater than 27 µM; in the experiment on HCT-116 colon it was 21.3 µM; with NCI-H23 lung, greater than 28.5 µM; with SK-MEL-28 melanoma, greater than 75.5 µM; in the experiment with SR leukemia, 29 µM; in the experiment on SK-MEL-5 melanoma, 13.9 µM. Further, the TGI with PC-3 prostate was greater than 100 µM; in the experiment with MALME-3M melanoma, greater than 67.5 µM; with SF-539 CNS, 4.87 µM; with HS 578T breast it was greater than 100 µM. Also, the GI50 in the experiment on PC-3 prostate was 2.8 µM; in the experiment with HS 578T breast it was 1.73 µM.
Consider `CCN(CC)CCC(CNc1c(C)cnc2cc(Cl)ccc12)c1ccc(Cl)c(Cl)c1` (stereo unspecified), for which the GI50 in the experiment on SK-MEL-2 melanoma was 2.67 µM; in the experiment with HCT-116 colon, 1.36 µM; with NCI-H23 lung, 5.62 µM; with SK-MEL-28 melanoma, 1.97 µM; with SR leukemia, 1.93 µM; in the experiment with SK-MEL-5 melanoma it was 1.82 µM. The GI50 was 4.1 µM in the experiment on PC-3 prostate, 1.88 µM in the experiment on MALME-3M melanoma, 1.77 µM in the experiment on SF-539 CNS and 4.26 µM with HS 578T breast. Also, the TGI with SK-MEL-2 melanoma was 7.73 µM; in the experiment with HCT-116 colon, 8.86 µM; in the experiment on NCI-H23 lung it was 20.6 µM; in the experiment on SK-MEL-28 melanoma, 3.83 µM; with SR leukemia it was 5.44 µM; in the experiment with SK-MEL-5 melanoma, 3.26 µM. For the same molecule, the TGI in the experiment on PC-3 prostate was 16.2 µM; in the experiment with MALME-3M melanoma, 3.5 µM; in the experiment on SF-539 CNS, 3.52 µM; in the experiment with HS 578T breast, 23.1 µM.
